The structures appear in SMILES notation. Calls of active or inactive are those of the source.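 The calls were made as follows: active = z-score above 3 at 5 µM with at least 500 cells counted in the well; inconclusive = wells under 500 cells, flagged as cytotoxic or low count; inactive = the rest.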 A value given as a limit tells only on which side of the number the result lay.

Experimental findings from PubChem BioAssay AID1625 (Sanford-Burnham Center for Chemical Genomics, 2009) are described below.

This assay has as its system MIN6 insulin promoter-GFP reporter, high-content imaging. Description: insulin promoter activators in MIN6 cells, imaging, high-content screening, mouse beta cells (AID 1625).

In the case of `Cc1[nH]c2ccccc2c1/C=N/Nc1ccc([N+](=O)[O-])cc1S(=O)(=O)Nc1ccc(Cl)cc1`, the EC50 (commonly the midpoint of the concentration-response curve) was > 16 µM (inactive).
In the case of `N#C/C(=C\c1ccc(N2CCOCC2)o1)c1ccccc1`, the EC50 was > 16 µM (inactive).
On to `C=CCSc1nnc(C)c(/C=C/Nc2ccc(Cl)cc2)n1`, for which the EC50 was > 16 µM (inactive).
With `COc1ccc(-c2ccc3c(N)c(C(=O)c4cccc(OC)c4)sc3n2)cc1`, the EC50 is > 16 µM (inactive).
The value for `Cc1ccc(N2C(=O)C3C(C(=O)c4ccccc4)=NN(c4ccccc4)C3C2=O)cc1` (stereo not drawn) was 12.6 µM (inactive); that for `Cc1cc(N2CCCC2)ccc1/C=C1/C(=O)N(C)C(=S)N1C` was > 16 µM (inactive); that for `Cc1nnc(NC(=O)c2sc3nc(-c4cccs4)cc(C(F)(F)F)c3c2N)s1` was 9.04 µM.
Under `O=c1c(Cl)c2oc3ccccc3nc-2c2ccccc12` stands > 16 µM (inactive); under `O=C(O)c1cc(-c2ccc(/C=C3/SC(=S)N(Cc4ccccc4)C3=O)o2)ccc1Cl`, 10.5 µM (inactive).
The value for `CCOc1cc([N+](=O)[O-])cc2c1C(=O)Nc1ccccc1O2` was > 16 µM (inactive); that for `Cc1cccc(NC(=O)/C=C/c2ccc([N+](=O)[O-])s2)c1` was > 16 µM (inactive); that for `CCCN1C(=O)S/C(=C/c2ccc(N3CCOCC3)o2)C1=O` was 8.06 µM.
With `CCN(CC)c1ccc2cc(-c3nnc(-c4ccccc4)o3)c(=O)oc2c1`, the half-maximal effective concentration (EC50) was 2.88 µM.
Take `O=[N+]([O-])c1ccc(-c2ccc(/C=N/Nc3nc(N4CCCCC4)nc(N4CCCCC4)n3)o2)cc1`: the EC50 was > 16 µM (inactive).
The value for `CCN1CCc2c(sc(NC(=O)Nc3ccc(Cl)c(Cl)c3)c2C(N)=O)C1` was 1.4 µM; that for `CCCCN1C(=O)/C(=C/C=C2\N(C)c3ccccc3C2(C)C)SC1=S` was 5.6 µM.
In the case of `O=C(O)c1ccccc1N/N=C/c1c(Sc2nnnn2-c2ccccc2)nc2ccccn2c1=O`, the 50% effective concentration (EC50) was 5.97 µM.
`CC1CCCCC1NC(=O)COC(=O)c1c2c(nc3ccccc13)/C(=C/c1ccco1)CC2` (stereo not drawn): the EC50 is > 16 µM (inactive).
In the case of `CCN(CC)c1ccc2cc(C(=O)Nc3ccccn3)c(=O)oc2c1`, the EC50 is > 16 µM (inactive).
On to `CN(C)c1ccc(/C=C2\CCC/C(=C\c3ccccc3)C2=O)cc1`, for which the EC50 was > 16 µM (inactive).
The value for `C=CCN1C(=O)/C(=C/c2ccc(N3CCOCC3)o2)C(=O)NC1=S` was > 16 µM (inactive).
Under `O=C1S/C(=C\c2ccc(N3CCOCC3)o2)C(=O)N1Cc1ccc(F)cc1` stands > 16 µM (inactive); under `Cc1ccc(Nc2nc(Cl)c(C=O)s2)cc1Cl`, > 16 µM (inactive); under `CCN(CC)c1ccc2cc(/C(N)=N/NC(=O)c3cccs3)c(=O)oc2c1`, 13.8 µM (inactive).
Under `N=c1oc2c3c4c(cc2cc1C(=O)Nc1ccccc1)CCCN4CCC3` stands 0.699 µM; under `O=c1oc2c3c4c(cc2c(C(F)(F)F)c1CCN1CCOCC1)CCCN4CCC3`, 6.05 µM.
Regarding `COc1cccc2sc(NNC(=O)C3=COCCO3)nc12`, the EC50 was > 16 µM (inactive).
`CCN(CC)c1ccc(/C=C(/C#N)C(=O)NC(C)C)o1`: the EC50 was > 16 µM (inactive).
Under `Cc1cccn2c(=O)c(/C=C3\SC(=S)N(CC(C)C)C3=O)c(NCCCOC(C)C)nc12` stands > 16 µM (inactive); under `CN1CC=C2C(C#N)=C(N)C(C#N)(C#N)C(c3ccncc3)C2C1` (stereo not drawn), > 16 µM (inactive); under `Cn1c(=O)c(NC2CCCCC2)c2c3c(cccc31)C(=O)c1ccccc1-2`, 2.67 µM.
Under `Cc1ccc(CN=Cc2[nH]c3ccc(Br)c(Cl)c3c2O)cc1` stands > 16 µM (inactive); under `CCCCN1C(=O)/C(=C/C=C2\Oc3ccccc3N2CC)SC1=S`, 0.958 µM.
For the molecule `CC(C)/C=C1\CC/C(=C\c2ccc(N(C)C)cc2)C1=O`, the EC50 was > 16 µM (inactive).
As to `CCN1CC=C2C(C1)C(c1ccc(Cl)s1)C(C#N)=C(N)C2(C#N)C#N` (stereo not drawn), the EC50 is 8.89 µM.
For the molecule `CN(C)c1ccc(/C=C2\SC(=O)N(CC(O)Cn3c4ccccc4c4ccccc43)C2=O)cc1` (stereo not drawn), the EC50 is > 16 µM (inactive).
The value for `O=[N+]([O-])c1ccc(N(c2ccccc2)c2ccccc2)cc1` was > 16 µM (inactive); that for `COc1cc2nc(/C=C/c3ccc(N(C)C)cc3)sc2cc1SC` was 7.43 µM; that for `Nc1c(C(=O)Nc2nc3ccccc3s2)sc2nc(-c3cccs3)ccc12` was 12.8 µM (inactive).
In the case of `O=C1c2cccc3c(O)ccc(c23)C(=O)N1Cc1ccco1`, the EC50 is 13.7 µM (inactive).
In the case of `CCOC(=O)CC1C(=O)NCCN1c1nc2ccc(C)cn2c(=O)c1/C=C1\SC(=S)N(C(C)CC)C1=O` (stereo not drawn), the 50% effective concentration (EC50) is 0.748 µM.
In the case of `Nc1ccc2c(c1)Cc1cc([N+](=O)[O-])ccc1-2`, the EC50 is 9.53 µM.
Under `N#C/C(=C/c1ccc(N2CCCCC2)o1)C(=O)Nc1ccc(Cl)cc1` stands 0.482 µM; under `Cc1ccc(-c2cn3nc(-c4ccccc4)c(-c4ccccc4)nc3n2)cc1`, 12.4 µM (inactive); under `CC(C)N1CC=C2C(C#N)=C(N)C(C#N)(C#N)C(c3ccccc3)C2C1` (stereo not drawn), 6 µM.
`CCN(CC)c1ccc2cc(-c3nc4ccccc4[nH]3)c(=O)oc2c1`: the EC50 was 0.281 µM.
The value for `O=[N+]([O-])c1ccc(C2=NN(c3ccccc3)C(c3ccco3)C2)cc1` (stereo not drawn) was 9.19 µM; that for `O=[N+]([O-])c1ccc(-c2ccc(/C=N/Nc3nc(NCc4ccccc4)nc(N4CCOCC4)n3)o2)cc1` was > 16 µM (inactive).
Under `CCN(CC)c1ccc(C=C(c2nnnn2-c2ccccc2)c2nnnn2-c2ccccc2)cc1` stands > 16 µM (inactive); under `N#C/C(=C/c1ccc(N2CCCCCC2)o1)c1ccc(Cl)cc1`, 10.1 µM (inactive).
Take `Cc1ccnc(N/C=C(\C#N)c2nc(-c3cccc(Br)c3)cs2)c1`: the EC50 was > 16 µM (inactive).
The value for `CCOC(=O)c1nn(-c2ccc(Cl)cc2Cl)c(=N)c(C#N)c1C` was 7.31 µM; that for `CCCN1C(=O)c2cccc3c(N4CCCCC4)ccc(c23)C1=O` was > 16 µM (inactive); that for `CCCCOc1ccc(-c2cc(C(F)(F)F)c(C#N)c(SCC(=O)O)n2)cc1` was > 16 µM (inactive).
The value for `COc1cc([C@@H]2[C@H]3CNCC=C3C(C#N)=C(N)C2(C#N)C#N)ccc1OC(C)C` was > 16 µM (inactive); that for `CCCNC(=O)Cn1c(=O)/c(=C\c2ccc(-c3ccc([N+](=O)[O-])cc3)o2)s/c1=C\C(=O)C(C)(C)C` was 0.359 µM.
Take `CC(C)(C)C(=O)c1sc2nc(-c3cccs3)cc(C(F)(F)F)c2c1N`: the EC50 is > 16 µM (inactive).
The value for `Cc1cc(/C=C2\NC(=S)N(C)C2=O)ccc1N1CCCC1` was 8.97 µM; that for `CCOc1cc(N(CC)CC)ccc1/C=C(/C#N)c1nc2ccccc2[nH]1` was 4.49 µM; that for `Cc1ccc(S(=O)(=O)CCSc2nc(C)cc(C(F)(F)F)c2C#N)cc1` was > 16 µM (inactive).
With `CCCCN1C(=O)/C(=C/C=C2\SCCN2C)SC1=S`, the EC50 was 9.18 µM.
The value for `C(=C/c1nccc2c1[nH]c1ccccc12)/c1ccc2c(c1)OCO2` was 11.9 µM (inactive).
Under `O=C(N=C1SCC(=O)N1c1ccccc1Cl)c1ccccc1` stands > 16 µM (inactive).
The value for `CCN1C(=O)/C(=C/C=C2\N(CC)c3cc(S(=O)(=O)N(C)C)ccc3N2c2ccccc2)SC1=S` was 6.67 µM; that for `CN1/C(=C\C=C2/C(=O)Oc3ccccc3C2=O)C(C)(C)c2ccccc21` was 2.58 µM; that for `C/C(=N\Nc1ccc([N+](=O)[O-])cc1)c1cc2ccccc2o1` was > 16 µM (inactive).
On to `CCCCN1C(=O)/C(=C/C=C2/CC(C)(C)CN2C)SC1=S`, for which the EC50 was 6.8 µM.
The value for `CC(=O)c1c(C)[nH]c(-c2ccccc2)nc1=S` was 9.08 µM; that for `COc1ccc2c(n1)Sc1nc3ccccc3nc1N2` was > 16 µM (inactive); that for `CCN1/C(=C/C=C/c2oc3ccc4ccccc4c3[n+]2CC)Oc2ccc3ccccc3c21` was below 0.25 µM.
Regarding `N#CC1=C(N)C(C#N)(C#N)[C@H](c2ccoc2)[C@H]2CN(Cc3ccccc3)CC=C12`, the EC50 is 9.87 µM.
Under `Cc1oc(C)c2c(=O)ccc3c(c12)OC(N)=C(C#N)C3c1ccccc1` (stereo not drawn) stands > 16 µM (inactive).
The value for `CCCC1C2CN(C(C)C)CC=C2C(C#N)=C(N)C1(C#N)C#N` (stereo not drawn) was 5.53 µM; that for `O=S(=O)(Nc1cc2nc3ccccc3nc2n1Cc1ccccc1)c1ccc(Cl)cc1` was 7.17 µM.
The value for `CCN(CC)C(=O)c1sc2nc(-c3cccs3)cc(-c3cccs3)c2c1N` was > 16 µM (inactive); that for `COc1cccc(/C=N/NC(=O)c2oc3nc(-c4ccccc4)cc(-c4ccco4)c3c2N)c1` was > 16 µM (inactive); that for `Nc1c(C(=O)c2ccc(Cl)cc2)sc2nsc(SCCN3CCOCC3)c12` was 5.95 µM.
In the case of `O=C1S/C(=C/c2ccc(N3CCOCC3)o2)C(=O)N1Cc1c(F)cccc1Cl`, the EC50 is 1.76 µM.
Under `O=C1c2cccc3c(N4CCCCC4)ccc(c23)C(=O)N1c1ccccc1O` stands > 16 µM (inactive); under `CN1/C(=C\C=C(/C#N)C(=O)Nc2ccc(Cl)cc2)C(C)(C)c2ccccc21`, > 16 µM (inactive).
The value for `CCOC(=O)/C(=C\C=C1/Sc2cc(OCC)c(OCC)cc2N1CC)C(C)=O` was 6.72 µM; that for `N#Cc1c(-c2ccco2)cc(C2CC2)nc1SCC(=O)c1ccccc1` was > 16 µM (inactive); that for `CCCN1C(=O)/C(=C/c2c(NCCCOC(C)C)nc3c(C)cccn3c2=O)SC1=S` was > 16 µM (inactive).
Under `CCOC(=O)N1CCN(/C=C(\C#N)c2nc3ccccc3s2)CC1` stands > 16 µM (inactive); under `COc1cc([C@@H]2[C@H]3CN(C)CC=C3C(C#N)=C(N)C2(C#N)C#N)cc2c1OCO2`, 8.67 µM.
For the molecule `CCCNc1c(F)c(F)c2c(C)c3ccccc3nc2c1F`, the EC50 is 8.02 µM.
In the case of `CC1=CN2C(=N)/C(=C/c3ccc([N+](=O)[O-])o3)C(=O)N=C2S1`, the EC50 is > 16 µM (inactive).
As for `Cc1c2ccccc2nc2c(F)c(NC(C)C)c(F)c(F)c12`, the EC50 was > 16 µM (inactive).
